What was measured:
Format in all cases: cell-based
[1] = test system: chondrogenic progenitor ATDC5 cells; assay: Detection of glycosaminoglycan by Alcian blue staining (absorbance at 620 nm); conditions: day 24 of culture
Protocol: (§1) Using chondrogenic progenitor ATDC5 cells, the effects of liquiritin on the differentiation of chondrogenic progenitor cells into chondrocytes, proliferation of chondrocytes, and production of cartilaginous matrix were investigated as follows.
(§2) ATDC5 cells (obtained from RIKEN BioResource Research Center) were seeded at 1×10^4 cells/well in a microplate containing 0.5 mL of Dulbecco's modified Eagle medium (DMEM)/Ham's F-12 medium (manufactured by FUJIFILM Wako Pure Chemical Corporation), and cultured at 37° C. in the presence of 5% by volume carbon dioxide. […]
On day 24 of culture, the cells were fixed with 95% by volume ethanol, and then stained with Alcian blue staining solution (prepared with 1% Alcian blue and 3% acetic acid aqueous solution, pH=2.5), and glycosaminoglycan was detected.
Then, the Alcian blue dye of the stained cultured cells was solubilized with 6M guanidine hydrochloride, and the absorbance at 620 nm was measured using a plate reader (Infinite 200 PRO, manufactured by Tecan Japan Co., Ltd., for each liquiritin concentration and control, n=4). The measurement results are shown in FIG. 1 as meantstandard deviation based on relative values when the absorbance in the control is 100. […]

[2] = test system: chondrogenic progenitor ATDC5 cells; assay: Quantification of intracellular sulfated glycosaminoglycan (dimethylmethylene blue, absorbance at 525 nm)
Protocol: as §1, §2
Each sample (20 μL) was blended with 200 μL of a 16 mg/L dimethylmethylene blue solution (prepared with an aqueous solution (pH=3.0) containing 40 mM glycine, 27 mM sodium chloride, and 10 mM acetic acid), and the absorbance at 525 nm was measured and sulfated glycosaminoglycan in the sample was quantified (n=4 for each). The quantification results are shown in FIG. 2 as meantstandard deviation. As regards the quantification results, an unpaired t-test was performed between each group added with liquiritin at the above-mentioned concentration and the control.

[3] = test system: chondrogenic progenitor ATDC5 cells; assay: Content of DNA in cell digestive fluid as index of cell number; conditions: day 24 of culture; at 10 μM and 20 μM significant at P<0.01 vs control (FIG. 3)
Protocol: as §1
ATDC5 cells (obtained from RIKEN BioResource Research Center) were seeded at 1×10^4 cells/well in a microplate containing 0.5 mL of Dulbecco's modified Eagle medium (DMEM)/Ham's F-12 medium (manufactured by FUJIFILM Wako Pure Chemical Corporation), and cultured at 37° C. in the presence of 5% by volume carbon dioxide.
On days 3, 6, 9, 12, 15, 18 and 21 of culture, transferrin and sodium selenite, which are differentiation-inducing reagents, were each added to the aforementioned medium at final concentrations of 10 μg/mL and 30 nM, respectively, and further, the medium was replaced with a medium to which liquiritin was added at each final concentration of 5 μM, 10 μM, or 20 μM, and the culture was continued.
The case of same treatment without adding liquiritin (liquiritin concentration=0 μM) was used as a control. […]
The content of DNA in the above-mentioned sample was measured using a DNA quantification kit (“DNA Assay Kit”, manufactured by Cosmo Bio Company, Limited) (n=4 for each) and used as an index of cell number. […]

[4] = test system: chondrogenic progenitor ATDC5 cells; assay: Measurement of number of cells under microscope
Protocol: Using chondrogenic progenitor ATDC5 cells, the effects of liquiritin on the differentiation of chondrogenic progenitor cells into chondrocytes, proliferation of chondrocytes, and production of cartilaginous matrix were investigated as follows. ATDC5 cells (obtained from RIKEN BioResource Research Center) were seeded at 1×10^4 cells/well in a microplate containing 0.5 mL of Dulbecco's modified Eagle medium (DMEM)/Ham's F-12 medium (manufactured by FUJIFILM Wako Pure Chemical Corporation), and cultured at 37° C. in the presence of 5% by volume carbon dioxide. […] In addition, on day 24 of culture, the cells were washed with 10 mM phosphate buffered saline (pH=7.4), the cells were detached using 0.25 (w/v) % trypsin-1 mM tetrasodium ethylenediaminetetraacetate solution (manufactured by FUJIFILM Wako Pure Chemical Corporation), the number of cells in the cell suspension was observed under an inverted culture microscope (CK40, manufactured by Olympus Corporation) (magnification=10x), and the number of cells was measured (n=4 for each). […]

In the case of O=C1C[C@@H](c2ccc(O[C@@H]3O[C@H](CO)[C@@H](O)[C@H](O)[C@H]3O)cc2)Oc2cc(O)ccc21 [liquiritin, (2S)-2,3-dihydro-7-hydroxy-2-[4-(β-D-glucopyranosyloxy)phenyl]-4H-1-benzopyran-4-one], the “absorbance at 620 nm of solubilized Alcian blue dye compared to the control” value ([1]; 20 μM liquiritin, P<0.05 (FIG. 1)) is reported as “significant increase”, the “glycosaminoglycan stained with Alcian blue in cultured cells” value ([1]; not less than 10 μM liquiritin, vs control (FIG. 1)) is reported as “increased” and the “amount of sulfated glycosaminoglycan contained in cell digestive fluid” value ([2]; 5 μM to 20 μM liquiritin, day 24 of culture, P<0.01 vs control (FIG. 2)) is reported as “significant increase”. The “concentration promoting production of glycosaminoglycan by chondrocytes (as low as)” value ([2]; ATDC5 cells, conclusion from results) was 5 µM, the “content of DNA in the cell digestive fluid (index of cell number)” value [3] was “increased with the addition concentration” and the “cell number on day 24 of culture” value ([4]; at 10 μM and 20 μM significant at P<0.05 vs control (FIG. 4)) was “increased with the addition concentration”. The cytotoxicity ([4]; concentration range 10 μM to 20 μM, ATDC5 cells) was “does not exhibit cytotoxicity”.
